US10329320B2, “Neuroactive steroids, compositions, and uses thereof” (Sage Therapeutics, Inc., priority 2015, dated 2019)

Each compound was assayed against GABAA receptor ([35S]-TBPS binding, rat brain cortical membranes) (assay: Steroid inhibition of [35S]-TBPS binding (radioligand displacement)). Settings: 3 nM [35S]-TBPS, in the presence of 5 μM GABA.
Procedure: TBPS binding assays using rat brain cortical membranes in the presence of 5 μM GABA has been described (Gee et al, J. Pharmacol. Exp. Ther. 1987, 241, 346-353; Hawkinson et al, Mol. Pharmacol. 1994, 46, 977-985; Lewin, A. H et al., Mol. Pharmacol. 1989, 35, 189-194).
Briefly, cortices are rapidly removed following decapitation of carbon dioxide-anesthetized Sprague-Dawley rats (200-250 g). The cortices are homogenized in 10 volumes of ice-cold 0.32 M sucrose using a glass/teflon homogenizer and centrifuged at 1500×g for 10 min at 4° C. The resultant supernatants are centrifuged at 10,000×g for 20 min at 4° C. to obtain the P2 pellets. The P2 pellets are resuspended in 200 mM NaCl/50 mM Na—K phosphate pH 7.4 buffer and centrifuged at 10,000×g for 10 min at 4° C. This washing procedure is repeated twice and the pellets are resuspended in 10 volumes of buffer. Aliquots (100 μL) of the membrane suspensions are incubated with 3 nM [^35S]-TBPS and 5 μL aliquots of test drug dissolved in dimethyl sulfoxide (DMSO) (final 0.5%) in the presence of 5 μM GABA. The incubation is brought to a final volume of 1.0 mL with buffer. Nonspecific binding is determined in the presence of 2 μM unlabeled TBPS and ranged from 15 to 25%. Following a 90 min incubation at room temp, the assays are terminated by filtration through glass fiber filters (Schleicher and Schuell No. 32) using a cell harvester (Brandel) and rinsed three times with ice-cold buffer. Filter bound radioactivity is measured by liquid scintillation spectrometry. Non-linear curve fitting of the overall data for each drug averaged for each concentration is done using Prism (GraphPad). […] The concentration of test compound producing 50% inhibition (IC50) of specific binding and the maximal extent of inhibition (Imax) are determined for the individual experiments with the same model used for the overall data and then the means ±SEM.s of the individual experiments are calculated.
Various compounds are or can be screened to determine their potential as modulators of [^35S]-TBPS binding in vitro. These assays are or can be performed in accordance with the above discussed procedures.

Structure (SMILES)	IC50
COC[C@]12CC[C@@](C)(O)C[C@H]1CC[C@H]1[C@@H]3CC[C@H](C(=O)Cn4ccnc4C)[C@@]3(C)CC[C@@H]12 [Compound 64]	100 to 500 nM
COC[C@]12CC[C@@](C)(O)C[C@H]1CC[C@H]1[C@@H]3CC[C@H](C(=O)Cn4cc(N)cn4)[C@@]3(C)CC[C@@H]12 [Compound 66]	10 to 50 nM
COC[C@]12CC[C@@](C)(O)C[C@H]1CC[C@H]1[C@@H]3CC[C@H](C(=O)Cn4cc(C(F)(F)F)cn4)[C@@]3(C)CC[C@@H]12 [Compound 67]	10 to 50 nM
CC(C)OC[C@]12CC[C@@](C)(O)C[C@H]1CC[C@H]1[C@@H]3CC[C@H](C(=O)Cn4nnc5c(F)c(F)ccc54)[C@@]3(C)CC[C@@H]12 [Compound 68]	< 10 nM
CC(C)OC[C@]12CC[C@@](C)(O)C[C@H]1CC[C@H]1[C@@H]3CC[C@H](C(=O)Cn4nnc5ccc(F)c(F)c54)[C@@]3(C)CC[C@@H]12 [Compound 69]	< 10 nM
CC(C)OC[C@]12CC[C@@](C)(O)C[C@H]1CC[C@H]1[C@@H]3CC[C@H](C(=O)Cn4nc5ccc(F)c(F)c5n4)[C@@]3(C)CC[C@@H]12 [Compound 70]	< 10 nM
CC(C)OC[C@]12CC[C@@](C)(O)C[C@H]1CC[C@H]1[C@@H]3CC[C@H](C(=O)Cn4ncnn4)[C@@]3(C)CC[C@@H]12 [Compound 72]	< 10 nM
COC[C@]12CC[C@@](C)(O)C[C@H]1CC[C@@H]1[C@@H]2CC[C@]2(C)C(C(=O)Cn3nnnc3C)CC[C@@H]12 (some centres unmarked) [Compound 74]	100 to 500 nM
COC[C@]12CC[C@@](C)(O)C[C@@H]1CC[C@H]1[C@@H]3CC[C@H](C(=O)Cn4cc5cc(F)ncc5n4)[C@@]3(C)CC[C@@H]12 [Compound 75]	100 to 500 nM
CCOC(=O)c1cn(CC(=O)[C@H]2CC[C@H]3[C@@H]4CC[C@H]5C[C@](C)(O)CC[C@]5(COC)[C@H]4CC[C@]23C)nn1 [Compound 80]	100 to 500 nM
COC[C@]12CC[C@@](C)(O)C[C@@H]1CC[C@H]1[C@@H]3CC[C@H](C(=O)Cn4ncc(C(=O)O)n4)[C@@]3(C)CC[C@@H]12 [Compound 81]	> 500 nM
COC[C@]12CC[C@@](C)(O)C[C@@H]1CC[C@H]1[C@@H]3CC[C@H](C(=O)Cn4cc(C(=O)O)nn4)[C@@]3(C)CC[C@@H]12 [Compound 82]	> 500 nM
COC[C@]12CC[C@@](C)(O)C[C@@H]1CC[C@H]1[C@@H]3CC[C@H](C(=O)Cn4ncc(C(N)=O)n4)[C@@]3(C)CC[C@@H]12 [Compound 83]	100 to 500 nM
COC[C@]12CC[C@@](C)(O)C[C@@H]1CC[C@H]1[C@@H]3CC[C@H](C(=O)Cn4ncc(CO)n4)[C@@]3(C)CC[C@@H]12 [Compound 85]	> 500 nM
